Values after ≈ are worked out from the molar mass of the structure shown.
Tested on: Human immunodeficiency virus; call rule not given here
Assay: Antiviral activity against HIV assessed as protection against virus-induced cytopathicity by cell based XTT assay
Format: functional, organism-based
[1] = Human immunodeficiency virus 1, read-out: EC50

| Structure (SMILES) | EC50 | IC50 (Human immunodeficiency virus 1) [µg/mL] | EC50 [1] [µg/mL] |
| --- | --- | --- | --- |
| CC(C)=CCC/C(C)=C/Cc1c(O)cc2c(c1O)C(=O)[C@H](O)[C@@H](c1ccc(O)cc1)O2 [BONANNIOL A] | Not Active | – | – |
| CC(C)=CCc1c(O)c(CC=C(C)C)c2c(c1O)C(=O)C[C@@H](c1ccc(O)cc1)O2 [LONCHOCARPOL A] | – | 2.7 (≈ 6.61 µM) | 1.3 (≈ 3.18 µM) |
| CC(C)=CCc1c(O)c(CC=C(C)C)c2c(c1O)C(=O)[C@H](O)[C@@H](c1ccc(O)cc1)O2 | – | 4.7 (≈ 11.1 µM) | 2.1 (≈ 4.95 µM) |
| C=CC(C)(C)c1c(O)cc2c(c1O)C(=O)C[C@@H](c1ccc(O)cc1)O2 | Not Active | – | – |
| CC(C)=CCC/C(C)=C/Cc1c(O)cc2oc(-c3ccc(O)cc3)c(O)c(=O)c2c1O [MACARANGIN] | Not Active | – | – |
| CC(C)=CCc1c(O)c(CC=C(C)C)c2oc(-c3ccc(O)cc3)c(O)c(=O)c2c1O | – | 5.8 (≈ 13.7 µM) | 2.4 (≈ 5.68 µM) |
